According to ChEMBL document CHEMBL1147297, “4-Hydroxy-25-desoxyneorollinicin, a new bistetrahydrofuranoid acetogenin from Rollinia papilionella” (1989):

How the values were obtained:
Format in all cases: functional
[1] = tested on: P388; test: Cytotoxicity against mouse P388 cells
[2] = tested on: A549; test: Cytotoxicity against human A549 cells; conditions: read-out: ED50 (the source's name)
[3] = tested on: MCF7; test: Cytotoxicity against human MCF7 cells; conditions: read-out: ED50 (the source's name)

## CCCCCCCCC[C@@H](O)[C@@H](O)[C@@H]1CC[C@@H]([C@@H]2CC[C@@H]([C@@H](O)CCCCCCCCCCCCC3=CC(C)OC3=O)O2)O1 (stereo partly drawn) [ROLLINICIN]
[1]
  ED50: 2.9 ×10⁻⁸ ug/ml

## CCCCCCCCCC[C@@H](O)[C@@H]1CC[C@H]([C@H]2CC[C@@H]([C@@H](O)CCCCCCCCCCC(O)CC3=CC(C)OC3=O)O2)O1 (stereo partly drawn)
[2]
  EC50: < 1 ng/mL
[3]
  EC50: < 1 ng/mL
